Results published in patent US20260297109A1, “COMPOUNDS AS SUMO ACTIVATING ENZYME INHIBITORS” (WIGEN BIOMEDICINE TECHNOLOGY (SHANGHAI) CO., LTD., priority 2022, published 2026).

What follows are molecules tested against T1, SAE (Homo sapiens, UniProt Q9UBT2) (assay: SUMO IF: in vitro inhibitory activity assay against SAE in HCT116 cells (SUMO-2/3 immunofluorescence)). Conditions: class symbols, 6 h at 37° C.
T1 construct: endogenous in cells; host or cells: HCT116
T1 sequence (Q9UBT2 1-640): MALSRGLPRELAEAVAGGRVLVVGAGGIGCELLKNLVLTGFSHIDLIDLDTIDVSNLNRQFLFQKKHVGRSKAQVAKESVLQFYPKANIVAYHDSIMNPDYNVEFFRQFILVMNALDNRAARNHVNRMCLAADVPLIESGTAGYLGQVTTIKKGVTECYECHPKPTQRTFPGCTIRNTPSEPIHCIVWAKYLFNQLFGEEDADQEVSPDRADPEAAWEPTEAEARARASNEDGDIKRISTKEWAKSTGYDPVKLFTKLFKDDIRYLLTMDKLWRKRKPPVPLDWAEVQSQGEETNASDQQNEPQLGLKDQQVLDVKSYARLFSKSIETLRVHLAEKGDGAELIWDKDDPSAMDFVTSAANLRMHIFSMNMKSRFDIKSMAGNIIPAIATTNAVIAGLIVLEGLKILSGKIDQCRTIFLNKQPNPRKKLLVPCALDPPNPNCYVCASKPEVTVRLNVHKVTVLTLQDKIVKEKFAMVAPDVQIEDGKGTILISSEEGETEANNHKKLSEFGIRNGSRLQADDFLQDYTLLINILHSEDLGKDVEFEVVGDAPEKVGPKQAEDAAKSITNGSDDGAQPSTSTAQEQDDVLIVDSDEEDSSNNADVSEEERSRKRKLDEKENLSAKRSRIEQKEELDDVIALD
T1 sequence (Q9UBE0 1-346): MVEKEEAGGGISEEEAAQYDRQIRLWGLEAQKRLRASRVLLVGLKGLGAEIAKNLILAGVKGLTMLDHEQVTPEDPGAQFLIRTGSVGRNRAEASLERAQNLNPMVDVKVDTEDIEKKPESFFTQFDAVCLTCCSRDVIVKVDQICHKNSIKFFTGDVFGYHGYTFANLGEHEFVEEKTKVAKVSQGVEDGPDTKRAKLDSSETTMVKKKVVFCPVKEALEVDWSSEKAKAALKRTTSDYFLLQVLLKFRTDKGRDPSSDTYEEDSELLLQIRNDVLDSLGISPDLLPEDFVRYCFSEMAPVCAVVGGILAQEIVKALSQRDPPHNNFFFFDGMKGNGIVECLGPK
Format: cell-based
How it was run: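 HCT116 cells were treated with compound for 6 h at 37 °C, then PFA-fixed, Triton-permeabilised and BSA-blocked. They were stained overnight at 4 °C with anti-SUMO-2/3 (18H8) rabbit mAb (1:400), then with FITC anti-rabbit IgG (1:300). Fluorescence versus DMSO gave inhibition rate and IC50.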

Going from `NS(=O)(=O)OC[C@H]1[C@H](F)[C@@H](Nc2ncncc2C(=O)c2cc3c(s2)CCCC32NCCc3ccc(Cl)nc32)C[C@@H]1O` (stereo partly drawn) [Compound 600] to `NS(=O)(=O)OC[C@H]1[C@H](F)[C@@H](Nc2ncncc2C(=O)c2cc3c(s2)CCC[C@@]32NCCc3ccc(Cl)nc32)C[C@@H]1O` [Compound 601], the IC50 rises from ≤ 50 nM to > 200 nM.

`NS(=O)(=O)OC[C@H]1[C@H](F)[C@@H](Nc2ncncc2C(=O)c2cc3c(s2)CCC[C@]32NCCc3ccc(Cl)nc32)C[C@@H]1O` [Compound 602] and `NS(=O)(=O)OC[C@H]1[C@H](F)[C@@H](Nc2ncncc2C(=O)c2cc3c(s2)CSCC32NCCc3ccc(Cl)nc32)C[C@@H]1O` (stereo partly drawn) [Compound 609] cannot be ordered by IC50: ≤ 50 nM for the first, 50 to 200 nM for the second.

Compared with `NS(=O)(=O)OC[C@H]1[C@H](F)[C@@H](Nc2ncncc2C(=O)c2cc3c(s2)CCCC32NCCc3ncc(Cl)cc32)C[C@@H]1O` (stereo partly drawn) [Compound 603], `NS(=O)(=O)OC[C@H]1[C@H](F)[C@@H](Nc2ncncc2C(=O)c2cc3c(s2)CCC[C@@]32NCCc3ncc(Cl)cc32)C[C@@H]1O` [Compound 604] is higher in IC50: 50 to 200 nM for the first, > 200 nM for the second. The first is the more potent here.

`NS(=O)(=O)OC[C@H]1[C@H](F)[C@@H](Nc2ncncc2C(=O)c2cc3c(s2)CCC[C@]32NCCc3ncc(Cl)cc32)C[C@@H]1O` [Compound 605] and `NS(=O)(=O)OC[C@H]1[C@H](F)[C@@H](Nc2ncncc2C(=O)c2cc3c(s2)CSCC32NCCc3ncc(Cl)cc32)C[C@@H]1O` (stereo partly drawn) [Compound 612] cannot be ordered by IC50: ≤ 50 nM for the first, 50 to 200 nM for the second.

Compared with `NS(=O)(=O)OC[C@H]1[C@H](F)[C@@H](Nc2ncncc2C(=O)c2cc3c(s2)CSCC32NCCc3cnc(Cl)cc32)C[C@@H]1O` (stereo partly drawn) [Compound 606], `NS(=O)(=O)OC[C@H]1[C@H](F)[C@@H](Nc2ncncc2C(=O)c2cc3c(s2)CSC[C@@]32NCCc3cnc(Cl)cc32)C[C@@H]1O` [Compound 607] is higher in IC50: 50 to 200 nM for the first, > 200 nM for the second.

Going from `NS(=O)(=O)OC[C@H]1[C@H](F)[C@@H](Nc2ncncc2C(=O)c2cc3c(s2)CSC[C@]32NCCc3cnc(Cl)cc32)C[C@@H]1O` [Compound 608] to `NS(=O)(=O)OC[C@H]1[C@H](F)[C@@H](Nc2ncncc2C(=O)c2cc3c(s2)CSC[C@@]32NCCc3ccc(Cl)nc32)C[C@@H]1O` [Compound 610], the IC50 rises from ≤ 50 nM to > 200 nM.

Compared with `NS(=O)(=O)OC[C@H]1[C@H](F)[C@@H](Nc2ncncc2C(=O)c2cc3c(s2)CSC[C@]32NCCc3ccc(Cl)nc32)C[C@@H]1O` [Compound 611], `NS(=O)(=O)OC[C@H]1[C@H](F)[C@@H](Nc2ncncc2C(=O)c2cc3c(s2)CSC[C@@]32NCCc3ncc(Cl)cc32)C[C@@H]1O` [Compound 613] is higher in IC50: ≤ 50 nM for the first, > 200 nM for the second.

`NS(=O)(=O)OC[C@H]1[C@H](F)[C@@H](Nc2ncncc2C(=O)c2cc3c(s2)CSC[C@]32NCCc3ncc(Cl)cc32)C[C@@H]1O` [Compound 614] and `NS(=O)(=O)OC[C@H]1[C@H](F)[C@@H](Nc2ncncc2C(=O)c2cc3c(s2)CC2(CC2)CC32NCCc3ccc(Cl)cc32)C[C@@H]1O` (stereo partly drawn) [Compound 615] cannot be ordered by IC50: ≤ 50 nM for the first, ≤ 50 nM for the second.

Compared with `NS(=O)(=O)OC[C@H]1[C@H](F)[C@@H](Nc2ncncc2C(=O)c2cc3c(s2)CCC[C@@]32NCC3(CC3)c3ccc(Cl)cc32)C[C@@H]1O` [Compound 616], `NS(=O)(=O)OC[C@H]1[C@H](F)[C@@H](Nc2ncncc2C(=O)c2cc3c(s2)CCC[C@]32NCC3(CC3)c3ccc(Cl)cc32)C[C@@H]1O` [Compound 617] is lower in IC50: > 200 nM for the first, ≤ 50 nM for the second. The second is the more potent here.

First: NS(=O)(=O)OC[C@H]1[C@H](F)[C@@H](Nc2ncncc2C(=O)c2cc3c(s2)C(F)=CC32NCCc3ccc(F)cc32)C[C@@H]1O (stereo partly drawn) [Compound 618]
Second: NS(=O)(=O)OC[C@H]1[C@H](F)[C@@H](Nc2ncncc2C(=O)c2cc3c(s2)C(F)=C[C@@]32NCCc3ccc(F)cc32)C[C@@H]1O [Compound 619]
The IC50 of the first is lower: 50 to 200 nM for the first, > 200 nM for the second.

`NS(=O)(=O)OC[C@H]1[C@H](F)[C@@H](Nc2ncncc2C(=O)c2cc3c(s2)C(F)=C[C@]32NCCc3ccc(F)cc32)C[C@@H]1O` [Compound 620] and `CC1=CC2(NCCc3ccc(F)cc32)c2cc(C(=O)c3cncnc3N[C@H]3C[C@H](O)[C@@H](COS(N)(=O)=O)[C@@H]3F)sc21` (stereo partly drawn) [Compound 621] fall in the same range of IC50: 50 to 200 nM for the first, 50 to 200 nM for the second.

Compared with `CC1=C[C@@]2(NCCc3ccc(F)cc32)c2cc(C(=O)c3cncnc3N[C@H]3C[C@H](O)[C@@H](COS(N)(=O)=O)[C@@H]3F)sc21` [Compound 622], `CC1=C[C@]2(NCCc3ccc(F)cc32)c2cc(C(=O)c3cncnc3N[C@H]3C[C@H](O)[C@@H](COS(N)(=O)=O)[C@@H]3F)sc21` [Compound 623] is lower in IC50: > 200 nM for the first, 50 to 200 nM for the second. The second is the more potent here.

First: NS(=O)(=O)OC[C@H]1[C@H](F)[C@@H](Nc2ncncc2C(=O)c2cc3c(s2)C(F)(F)CC32NCCc3ccc(F)cc32)C[C@@H]1O (stereo partly drawn) [Compound 624]
Second: NS(=O)(=O)OC[C@H]1[C@H](F)[C@@H](Nc2ncncc2C(=O)c2cc3c(s2)C(F)(F)C[C@@]32NCCc3ccc(F)cc32)C[C@@H]1O [Compound 625]
The IC50 of the first is lower: 50 to 200 nM for the first, > 200 nM for the second.

`NS(=O)(=O)OC[C@H]1[C@H](F)[C@@H](Nc2ncncc2C(=O)c2cc3c(s2)C(F)(F)C[C@]32NCCc3ccc(F)cc32)C[C@@H]1O` [Compound 626] and `NS(=O)(=O)OC[C@H]1[C@H](F)[C@@H](Nc2ncncc2C(=O)c2cc3c(s2)C(=O)CC32NCCc3ccc(Cl)cc32)C[C@@H]1O` (stereo partly drawn) [Compound 630] fall in the same range of IC50: 50 to 200 nM for the first, 50 to 200 nM for the second.

`NS(=O)(=O)OC[C@H]1[C@H](F)[C@@H](Nc2ncncc2C(=O)c2cc3c(s2)CCCC32NC(=O)Cc3ccc(Cl)cc32)C[C@@H]1O` (stereo partly drawn) [Compound 627] and `NS(=O)(=O)OC[C@H]1[C@H](F)[C@@H](Nc2ncncc2C(=O)c2cc3c(s2)CCC[C@@]32NC(=O)Cc3ccc(Cl)cc32)C[C@@H]1O` [Compound 628] cannot be ordered by IC50: > 200 nM for the first, > 200 nM for the second.

`NS(=O)(=O)OC[C@H]1[C@H](F)[C@@H](Nc2ncncc2C(=O)c2cc3c(s2)CCC[C@]32NC(=O)Cc3ccc(Cl)cc32)C[C@@H]1O` [Compound 629] and `NS(=O)(=O)OC[C@H]1[C@H](F)[C@@H](Nc2ncncc2C(=O)c2cc3c(s2)C(=O)C[C@@]32NCCc3ccc(Cl)cc32)C[C@@H]1O` [Compound 631] cannot be ordered by IC50: > 200 nM for the first, > 200 nM for the second.

`NS(=O)(=O)OC[C@H]1[C@H](F)[C@@H](Nc2ncncc2C(=O)c2cc3c(s2)C(=O)C[C@]32NCCc3ccc(Cl)cc32)C[C@@H]1O` [Compound 632] and `CCN1Cc2sc(C(=O)c3cncnc3N[C@H]3C[C@H](O)[C@@H](COS(N)(=O)=O)[C@@H]3F)cc2C2(C1)NCCc1ccc(Cl)cc12` (stereo partly drawn) [Compound 645] cannot be ordered by IC50: 50 to 200 nM for the first, ≤ 50 nM for the second.

`NS(=O)(=O)CC[C@H]1[C@H](F)[C@@H](Nc2ncncc2C(=O)c2cc3c(s2)CCCC32NCCc3ccc(Cl)cc32)C[C@@H]1O` (stereo partly drawn) [Compound 636] and `NS(=O)(=O)CC[C@H]1[C@H](F)[C@@H](Nc2ncncc2C(=O)c2cc3c(s2)CCC[C@@]32NCCc3ccc(Cl)cc32)C[C@@H]1O` [Compound 637] cannot be ordered by IC50: > 200 nM for the first, > 200 nM for the second.

First: NS(=O)(=O)CC[C@H]1[C@H](F)[C@@H](Nc2ncncc2C(=O)c2cc3c(s2)CCC[C@]32NCCc3ccc(Cl)cc32)C[C@@H]1O [Compound 638]
Second: NS(=O)(=O)CC[C@H]1[C@H](F)[C@@H](Nc2ncncc2C(=O)c2cc3c(s2)CC[C@@]32NCCc3ccc(Cl)cc32)C[C@@H]1O [Compound 641]
The IC50 of the first is lower: 50 to 200 nM for the first, > 200 nM for the second. The first is the more potent here.

First: NS(=O)(=O)CC[C@H]1[C@H](F)[C@@H](Nc2ncncc2C(=O)c2cc3c(s2)C=C[C@@]32NCCc3ccc(Cl)cc32)C[C@@H]1O [Compound 639]
Second: NS(=O)(=O)CC[C@H]1[C@H](F)[C@@H](Nc2ncncc2C(=O)c2cc3c(s2)C=C[C@]32NCCc3ccc(Cl)cc32)C[C@@H]1O [Compound 640]
The IC50 of the first is higher: > 200 nM for the first, 50 to 200 nM for the second. The second is the more potent here.

Compared with `NS(=O)(=O)CC[C@H]1[C@H](F)[C@@H](Nc2ncncc2C(=O)c2cc3c(s2)CC[C@]32NCCc3ccc(Cl)cc32)C[C@@H]1O` [Compound 642], `COc1ccc2c(c1)[C@]1(CCCc3sc(C(=O)c4cncnc4N[C@H]4C[C@H](O)[C@@H](COS(N)(=O)=O)[C@@H]4F)cc31)NCC2` [Compound 643] is higher in IC50: 50 to 200 nM for the first, > 200 nM for the second.

For `COc1ccc2c(c1)[C@@]1(CCCc3sc(C(=O)c4cncnc4N[C@H]4C[C@H](O)[C@@H](COS(N)(=O)=O)[C@@H]4F)cc31)NCC2` [Compound 644], the IC50 was > 200 nM.

Same assay, conditions: numeric values, 6 h at 37° C.

Point of comparison: `CCN1Cc2sc(C(=O)c3cncnc3N[C@H]3C[C@H](O)[C@@H](COS(N)(=O)=O)[C@@H]3F)cc2[C@]2(C1)NCCc1ccc(Cl)cc12` [Compound 647], IC50 19.9 nM. Against it:
- CCN1Cc2sc(C(=O)c3cncnc3N[C@H]3C[C@H](O)[C@@H](COS(N)(=O)=O)[C@@H]3F)cc2[C@@]2(C1)NCCc1ccc(Cl)cc12 [Compound 646] — higher, > 1000 nM
